Counter-ions that a name gives are not always drawn.
System: SKOV-3 cancer cell lines
Experiment: SKOV-3 cell viability after treatment with 10 μM test compound
Type: cell-based
Details: 10 micromolar test compound, dihydrochloride
Experimental: SKOV-3 cancer cell lines were treated with a test compound, either as a pure enantiomer or a mixture of stereoisomers, at a concentration of 10 μM. Cell viability was evaluated following treatment with a compound as disclosed in Table B. Viability of cancer cells following treatment is indicated according to the following legend:
A=0-25% viability B=26-50% viability C=>50% viability

SMILES	% viability after treatment with 10 micromolar of test compound (SKOV-3 cells)
CN[C@@H](C)C(=O)N[C@H]1CCO[C@H]2CC(C)(C)[C@@H](CN[C@@H]3CCSc4ccccc43)N2C1=O [Compound 68, (S)—N-((4S,7S,9aS)-8,8-dimethyl-5-oxo-7-((((R)-thiochroman-4-yl)amino)methyl)octahydropyrrolo[2,1-b][1,3]oxazepin-4-yl)-2-(methylamino)propanamide dihydrochloride]	C (C=>50% viability)

Same assay, conditions: 10 micromolar test compound, hydrochloride

SMILES	% viability after treatment with 10 micromolar of test compound (SKOV-3 cells)
C=CCC1(CC=C)C[C@@H]2OCC[C@H](NC(=O)[C@H](C)NC)C(=O)N2[C@@H]1C(=O)NC(c1ccccc1)c1ccccc1 [Compound 51, (4S)-8,8-diallyl-N-benzhydryl-4-((S)-2-(methylamino)propanamido)-5-oxooctahydropyrrolo[2,1-b][1,3]oxazepine-7-carboxamide hydrochloride]	B (B=26-50% viability)
CN[C@@H](C)C(=O)N[C@H]1CCO[C@H]2CC(CCc3ccccc3)(CCc3ccccc3)[C@@H](C(=O)N[C@@H]3CCCc4ccccc43)N2C1=O [Compound 25, (4S,9aS)-4-((S)-2-(methylamino)propanamido)-5-oxo-8,8-diphenethyl-N—((R)-1,2,3,4-tetrahydronaphthalen-1-yl)octahydropyrrolo[2,1-b][1,3]oxazepine-7-carboxamide hydrochloride]	B (B=26-50% viability)
CCC1(CC)C[C@@H]2OCC[C@H](NC(=O)[C@H](C)NC)C(=O)N2[C@@H]1C(=O)NC(c1ccccc1)c1ccccc1 [Compound 58, (4S)—N-benzhydryl-8,8-diethyl-4-((S)-2-(methylamino)propanamido)-5-oxooctahydropyrrolo[2,1-b][1,3]oxazepine-7-carboxamide hydrochloride]	B (B=26-50% viability)
CN[C@@H](C)C(=O)N[C@H]1CCS[C@H]2CC(C(C)C)(C(C)C)[C@@H](C(=O)N[C@@H]3CCCc4ccccc43)N2C1=O [Compound 43, 4S,9aS)-8,8-diisopropyl-4-((S)-2-(methylamino)propanamido)-5-oxo-N—((R)-1,2,3,4-tetrahydronaphthalen-1-yl)octahydropyrrolo[2,1-b][1,3]thiazepine-7-carboxamide hydrochloride]	C (C=>50% viability)
C=CCC1C[C@@H]2SCC[C@H](NC(=O)[C@H](C)NC)C(=O)N2[C@@H]1C(=O)N[C@@H]1CCCc2ccccc21 (stereo partly drawn) [Compound 30, (4S,9aS)-8,8-allyl-4-((S)-2-(methylamino)propanamido)-5-oxo-N—((R)-1,2,3,4-tetrahydronaphthalen-1-yl)octahydropyrrolo[2,1-b][1,3]thiazepine-7-carboxamide hydrochloride]	B (B=26-50% viability)
C=CCC1(CC=C)C[C@@H]2OCC[C@H](NC(=O)[C@H](C)NC)C(=O)N2[C@@H]1C(=O)NC(c1ccccc1)c1ccccc1 [Compound 49, (4S)-8,8-diallyl-N-benzhydryl-4-((S)-2-(methylamino)propanamido)-5-oxooctahydropyrrolo[2,1-b][1,3]oxazepine-7-carboxamide hydrochloride]	B (B=26-50% viability)
CCC1(CC)C[C@@H]2SCC[C@H](NC(=O)[C@H](C)NC)C(=O)N2[C@@H]1C(=O)N[C@@H]1CCCc2ccccc21 [Compound 39, (4S,9aS)-8,8-diethyl-4-((S)-2-(methylamino)propanamido)-5-oxo-N—((R)-1,2,3,4-tetrahydronaphthalen-1-yl)octahydropyrrolo[2,1-b][1,3]thiazepine-7-carboxamide hydrochloride]	B (B=26-50% viability)
C=CCC1(CC=C)C[C@@H]2OCC[C@H](NC(=O)[C@H](C)NC)C(=O)N2[C@@H]1C(=O)NC(c1ccccc1)c1ccccc1 [Compound 52, (4S)-8,8-diallyl-N-benzhydryl-4-((S)-2-(methylamino)propanamido)-5-oxooctahydropyrrolo[2,1-b][1,3]oxazepine-7-carboxamide hydrochloride]	B (B=26-50% viability)
CN[C@@H](C)C(=O)N[C@H]1CCS[C@H]2CC(C(C)C)(C(C)C)[C@@H](C(=O)N[C@@H]3CCCc4ccccc43)N2C1=O [Compound 42, 4S,9aS)-8,8-diisopropyl-4-((S)-2-(methylamino)propanamido)-5-oxo-N—((R)-1,2,3,4-tetrahydronaphthalen-1-yl)octahydropyrrolo[2,1-b][1,3]thiazepine-7-carboxamide hydrochloride]	C (C=>50% viability)
CCC1(CC)C[C@@H]2SCC[C@H](NC(=O)[C@H](C)NC)C(=O)N2[C@@H]1C(=O)N[C@@H]1CCCc2ccccc21 [Compound 37, (4S,9aS)-8,8-diethyl-4-((S)-2-(methylamino)propanamido)-5-oxo-N—((R)-1,2,3,4-tetrahydronaphthalen-1-yl)octahydropyrrolo[2,1-b][1,3]thiazepine-7-carboxamide hydrochloride]	B (B=26-50% viability)
CCC1(CC)C[C@@H]2OCC[C@H](NC(=O)[C@H](C)NC)C(=O)N2[C@@H]1C(=O)NC(c1ccccc1)c1ccccc1 [Compound 59, (4S)—N-benzhydryl-8,8-diethyl-4-((S)-2-(methylamino)propanamido)-5-oxooctahydropyrrolo[2,1-b][1,3]oxazepine-7-carboxamide hydrochloride]	A (A=0-25% viability)
CN[C@@H](C)C(=O)N[C@H]1CCO[C@H]2CC(CCc3ccccc3)(CCc3ccccc3)[C@@H](C(=O)N[C@@H]3CCCc4ccccc43)N2C1=O [Compound 26, (4S,9aS)-4-((S)-2-(methylamino)propanamido)-5-oxo-8,8-diphenethyl-N—((R)-1,2,3,4-tetrahydronaphthalen-1-yl)octahydropyrrolo[2,1-b][1,3]oxazepine-7-carboxamide hydrochloride]	C (C=>50% viability)
CN[C@@H](C)C(=O)N[C@H]1CCS[C@H]2CC(CCc3ccccc3)[C@@H](C(=O)N[C@@H]3CCCc4ccccc43)N2C1=O (stereo partly drawn) [Compound 46, (4S,9aS)-4-((S)-2-(methylamino)propanamido)-5-oxo-8,8-phenethyl-N—((R)-1,2,3,4-tetrahydronaphthalen-1-yl)octahydropyrrolo[2,1-b][1,3]thiazepine-7-carboxamide hydrochloride]	B (B=26-50% viability)

Same assay, conditions: Homo sapiens, SK-OV-3, 10 micromolar test compound; SKOV-3 cells

SMILES	viability at 10 µM [%]
CN[C@@H](C)C(=O)N[C@H]1CCO[C@H]2CC(CCc3ccccc3)(CCc3ccccc3)[C@H](C(=O)N[C@@H]3CCCc4ccccc43)N2C1=O [Compound 22, (4S,9aS)-4-((S)-2-(methylamino)propanamido)-5-oxo-8,8-diphenethyl-N—((R)-1,2,3,4-tetrahydronaphthalen-1-yl)octahydropyrrolo[2,1-b][1,3]oxazepine-7-carboxamide hydrochloride]	0 to 25
CN[C@@H](C)C(=O)N[C@H]1CCO[C@H]2CC(CCc3ccccc3)(CCc3ccccc3)[C@@H](C(=O)NC(c3ccccc3)c3ccccc3)N2C1=O [Compound 62, (4S)—N-benzhydryl-4-((S)-2-(methylamino)propanamido)-5-oxo-8,8-diphenethyloctahydropyrrolo[2,1-b][1,3]oxazepine-7-carboxamide hydrochloride]	> 50
C=CCC1C[C@@H]2OCC[C@H](NC(=O)[C@H](C)NC)C(=O)N2[C@@H]1C(=O)NC(c1ccccc1)c1ccccc1 (stereo partly drawn) [Compound 53, (4S)-8,8-allyl-N-benzhydryl-4-((S)-2-(methylamino)propanamido)-5-oxooctahydropyrrolo[2,1-b][1,3]oxazepine-7-carboxamide hydrochloride]	26 to 50
CN[C@@H](C)C(=O)N[C@H]1Cc2c([nH]c3ccccc23)[C@H]2CC(C)(C)[C@@H](C(=O)NC(c3ccccc3)c3ccccc3)N2C1=O [Compound 54, (6S)—N-benzhydryl-2,2-dimethyl-6-((S)-2-(methylamino)propanamido)-5-oxo-1,2,3,5,6,7,12,12b-octahydropyrrolo[1′,2′:1,2]azepino[3,4-b]indole-3-carboxamide hydrochloride]	> 50
C=CCC1(CC=C)C[C@@H]2SCC[C@H](NC(=O)[C@H](C)NC)C(=O)N2[C@H]1C(=O)N[C@@H]1CCCc2ccccc21 [Compound 28, (4S,9aS)-8,8-diallyl-4-((S)-2-(methylamino)propanamido)-5-oxo-N—((R)-1,2,3,4-tetrahydronaphthalen-1-yl)octahydropyrrolo[2,1-b][1,3]thiazepine-7-carboxamide hydrochloride]	26 to 50
C=CCC1C[C@@H]2OCC[C@H](NC(=O)[C@H](C)NC)C(=O)N2[C@H]1C(=O)N[C@@H]1CCCc2ccccc21 (stereo partly drawn) [Compound 13, (4S,9aS)-8,8-allyl-4-((S)-2-(methylamino)propanamido)-5-oxo-N—((R)-1,2,3,4-tetrahydronaphthalen-1-yl)octahydropyrrolo[2,1-b][1,3]oxazepine-7-carboxamide hydrochloride]	26 to 50
CN[C@@H](C)C(=O)N[C@H]1CCO[C@H]2CC(C)(C)C(c3nc4ccccc4o3)N2C1=O (stereo partly drawn) [Compound 72, (2S)—N-((4S,9aS)-7-(benzo[d]oxazol-2-yl)-8,8-dimethyl-5-oxooctahydropyrrolo[2,1-b][1,3]oxazepin-4-yl)-2-(methylamino)propanamide hydrochloride]	> 50
